In PubChem BioAssay AID256 (DTP/NCI, 2004):
Several values for one entry are separate records, joined by “and”; a condition that tells them apart may be missing. Identical values can stand only once. Inconclusive results and toxic doses are left out. Rule for the calls: active = survival T/C of 150% or more; inactive = T/C below 125% in these data.

Tested on: CD2F1 mice, L1210 leukemia ip, survival T/C
Assay: NCI In Vivo Anticancer Drug Screen. Data for tumor model L1210 Leukemia (intraperitoneal) in CD2F1 (CDF1) mice
Details: higher = longer survival
How it was run: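 Compound-dosed mice with transplantable tumor versus matched vehicle controls; endpoint ratio T/C reported.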

[1] = endpoint: mean survival time, dose: 100.0 mg/kg/injection, schedule: Q01DX009 (ip), vehicle: saline with Tween-80
[2] = endpoint: mean survival time, dose: 200.0 mg/kg/injection, schedule: Q01DX009 (ip), vehicle: saline with Tween-80
[3] = endpoint: mean survival time, dose: 400.0 mg/kg/injection, schedule: Q01DX009 (ip), vehicle: saline with Tween-80
[4] = endpoint: mean survival time, dose: 100.0 mg/kg/injection, schedule: Q04DX003 (ip), vehicle: saline with Tween-80
[5] = endpoint: mean survival time, dose: 200.0 mg/kg/injection, schedule: Q04DX003 (ip), vehicle: saline with Tween-80
[6] = endpoint: mean survival time, dose: 400.0 mg/kg/injection, schedule: Q04DX003 (ip), vehicle: saline with Tween-80
[7] = endpoint: mean survival time, dose: 100.0 mg/kg/injection, schedule: Q01DX009 (ip), vehicle: saline
[8] = endpoint: mean survival time, dose: 200.0 mg/kg/injection, schedule: Q01DX009 (ip), vehicle: saline
[9] = endpoint: mean survival time, dose: 400.0 mg/kg/injection, schedule: Q01DX009 (ip), vehicle: saline
[10] = endpoint: mean survival time, dose: 100.0 mg/kg/injection, schedule: Q01DX001 (ip), vehicle: saline with Tween-80
[11] = endpoint: mean survival time, dose: 100.0 mg/kg/injection, schedule: Q04DX002 (ip), vehicle: saline with Tween-80
[12] = endpoint: mean survival time, dose: 200.0 mg/kg/injection, schedule: Q01DX001 (ip), vehicle: saline with Tween-80
[13] = endpoint: mean survival time, dose: 400.0 mg/kg/injection, schedule: Q01DX001 (ip), vehicle: saline with Tween-80

Measured: T/C

COC12CC(COC(=O)c3cncc(Br)c3)CN(C)C1Cc1cn(C)c3cccc2c13 (configuration not stated)
inactive: endpoint: mean survival time, dose: 100.0 mg/kg/injection, schedule: Q04DX003 (ip), vehicle: alcohol 105 % of control | endpoint: mean survival time, dose: 200.0 mg/kg/injection, schedule: Q04DX003 (ip), vehicle: alcohol 102 % of control | endpoint: mean survival time, dose: 400.0 mg/kg/injection, schedule: Q04DX003 (ip), vehicle: alcohol 111 % of control

CCCCCCCC(=O)Nc1c(C)cccc1C
inactive: [1] 96 % of control | [2] 88 % of control | [3] 91 % of control

O=C1Cc2ccccc2CO1
inactive: [4] 97 % of control | [5] 94 % of control | [6] 105 % of control

S=c1[nH]c2ccccc2[nH]c1=S
inactive: endpoint: mean survival time, dose: 10.0 mg/kg/injection, schedule: Q01DX001 (ip), vehicle: Klucel (hydroxypropylcellulose) (HPC) 103 % of control | endpoint: mean survival time, dose: 20.0 mg/kg/injection, schedule: Q01DX001 (ip), vehicle: Klucel (hydroxypropylcellulose) (HPC) 108 % of control

CC(C)N1CCOC1c1ccccc1 (configuration not stated)
inactive: endpoint: mean survival time, dose: 75.0 mg/kg/injection, schedule: Q01DX001 (ip), vehicle: saline 101 % of control | endpoint: mean survival time, dose: 150.0 mg/kg/injection, schedule: Q01DX001 (ip), vehicle: saline 101 % of control | endpoint: mean survival time, dose: 300.0 mg/kg/injection, schedule: Q01DX001 (ip), vehicle: saline 97 % of control

Cc1nc(N)nc(N)c1CCCOc1ccc(NC(=O)c2cccc(S(=O)(=O)F)c2)cc1
inactive: endpoint: mean survival time, dose: 12.5 mg/kg/injection, schedule: Q01DX009 (ip), vehicle: saline 101 % of control | endpoint: mean survival time, dose: 25.0 mg/kg/injection, schedule: Q01DX009 (ip), vehicle: saline 107 % of control | endpoint: mean survival time, dose: 50.0 mg/kg/injection, schedule: Q01DX009 (ip), vehicle: saline 107 % of control | [7] 109 % of control | endpoint: mean survival time, dose: 100.0 mg/kg/injection, schedule: Q#A X018 (ip), vehicle: saline 90 % of control | [8] 107 % of control

CC(=O)Oc1ccc[nH]c1=O
active: [9] 150 % of control and 156 % of control | endpoint: median survival time, dose: 266.0 mg/kg/injection, schedule: Q03HX027 (ip), vehicle: saline with Tween-80 185 % of control
inactive: endpoint: mean survival time, dose: 600.0 mg/kg/injection, schedule: Q01DX009 (ip), vehicle: saline 100 % of control and 108 % of control | endpoint: median survival time, dose: 16.7 mg/kg/injection, schedule: Q03HX027 (ip), vehicle: saline with Tween-80 103 % of control | endpoint: median survival time, dose: 33.0 mg/kg/injection, schedule: Q03HX027 (ip), vehicle: saline with Tween-80 91 % of control and 102 % of control | endpoint: median survival time, dose: 50.0 mg/kg/injection, schedule: Q01DX009 (ip), vehicle: saline with Tween-80 100 % of control and 101 % of control | endpoint: median survival time, dose: 66.7 mg/kg/injection, schedule: Q03HX027 (ip), vehicle: saline with Tween-80 91 % of control and 93 % of control and 103 % of control | endpoint: median survival time, dose: 100.0 mg/kg/injection, schedule: Q01DX009 (ip), vehicle: saline with Tween-80 100 % of control and 102 % of control and 103 % of control | endpoint: median survival time, dose: 133.0 mg/kg/injection, schedule: Q03HX027 (ip), vehicle: saline with Tween-80 102 % of control and 103 % of control and 106 % of control | endpoint: median survival time, dose: 200.0 mg/kg/injection, schedule: Q01DX009 (ip), vehicle: saline with Tween-80 103 % of control (2×) and 111 % of control

c1ccc(-n2c3ccccc3c3ccccc32)cc1
inactive: [1] 98 % of control | [2] 98 % of control | [3] 95 % of control

CCCCC(=O)/C=C/Sc1n[nH]c(=O)[nH]c1=O
inactive: endpoint: mean survival time, dose: 12.5 mg/kg/injection, schedule: Q01DX005 (ip), vehicle: distilled water + Tween-80 104 % of control | endpoint: mean survival time, dose: 25.0 mg/kg/injection, schedule: Q01DX005 (ip), vehicle: distilled water + Tween-80 93 % of control | endpoint: mean survival time, dose: 50.0 mg/kg/injection, schedule: Q01DX005 (ip), vehicle: distilled water + Tween-80 90 % of control

CCC(=O)C(c1ccccc1)(c1ccccc1)c1ccccc1
inactive: endpoint: mean survival time, dose: 25.0 mg/kg/injection, schedule: Q04DX002 (ip), vehicle: other 98 % of control | endpoint: mean survival time, dose: 50.0 mg/kg/injection, schedule: Q04DX002 (ip), vehicle: other 95 % of control | endpoint: mean survival time, dose: 100.0 mg/kg/injection, schedule: Q04DX002 (ip), vehicle: other 95 % of control

CC(=O)OC1CCC2(C)C3=CCC4(C)C(C(C)/C=C\C(C)C(C)C)CCC4C34C=CC2(C1)C1C(=O)OC(=O)C14 (configuration not stated)
inactive: endpoint: mean survival time, dose: 50.0 mg/kg/injection, schedule: Q01DX001 (ip), vehicle: saline with Tween-80 97 % of control | [10] 91 % of control | [11] 86 % of control | [12] 95 % of control

O=C(O)C(=CCc1cccc2ccccc12)C(=O)O
inactive: endpoint: mean survival time, dose: 100.0 mg/kg/injection, schedule: Q04DX003 (ip), vehicle: Klucel (hydroxypropylcellulose) (HPC) 101 % of control | endpoint: mean survival time, dose: 200.0 mg/kg/injection, schedule: Q04DX003 (ip), vehicle: Klucel (hydroxypropylcellulose) (HPC) 100 % of control | endpoint: mean survival time, dose: 400.0 mg/kg/injection, schedule: Q04DX003 (ip), vehicle: Klucel (hydroxypropylcellulose) (HPC) 103 % of control

CNC(=O)OCc1c(COC(=O)NC)c(-c2ccc(Cl)c(Cl)c2)n2c1Cc1ccccc1C2
inactive: endpoint: median survival time, dose: 12.5 mg/kg/injection, schedule: Q01DX009 (ip), vehicle: distilled water + Tween-80 122 % of control | endpoint: median survival time, dose: 25.0 mg/kg/injection, schedule: Q01DX009 (ip), vehicle: distilled water + Tween-80 122 % of control | endpoint: median survival time, dose: 200.0 mg/kg/injection, schedule: Q01DX009 (ip), vehicle: distilled water + Tween-80 124 % of control
active: endpoint: median survival time, dose: 50.0 mg/kg/injection, schedule: Q01DX009 (ip), vehicle: distilled water + Tween-80 157 % of control | endpoint: median survival time, dose: 100.0 mg/kg/injection, schedule: Q01DX009 (ip), vehicle: distilled water + Tween-80 164 % of control and 173 % of control

N/C(=N\c1nc(N)cc(=O)[nH]1)Nc1ccc(S(N)(=O)=O)cc1
inactive: [7] 96 % of control | [8] 95 % of control | [9] 95 % of control

CCNc1nnc(N=Nc2ccccc2)s1
inactive: endpoint: mean survival time, dose: 25.0 mg/kg/injection, schedule: Q04DX002 (ip), vehicle: saline with Tween-80 91 % of control | endpoint: mean survival time, dose: 50.0 mg/kg/injection, schedule: Q04DX002 (ip), vehicle: saline with Tween-80 95 % of control | [11] 95 % of control | endpoint: mean survival time, dose: 200.0 mg/kg/injection, schedule: Q04DX002 (ip), vehicle: saline with Tween-80 88 % of control

CC1CC(C)(C)N=C(C2CCCC2)O1 (configuration not stated)
inactive: [10] 96 % of control | [12] 96 % of control | [13] 100 % of control

COc1ccc(-c2cc(C(=O)O)c3cccc(C)c3n2)cc1
inactive: endpoint: mean survival time, dose: 50.0 mg/kg/injection, schedule: Q01DX009 (ip), vehicle: saline with Tween-80 95 % of control | [1] 95 % of control | [4] 98 % of control | [2] 95 % of control | [5] 95 % of control

O=C(c1ccc(Cl)cc1)C(O)c1ccc(Cl)cc1 (configuration not stated)
inactive: [1] 93 % of control | [4] 100 % of control | [2] 98 % of control | [5] 96 % of control | [3] 107 % of control | [6] 91 % of control

CC1(C)CC(=O)C2=C(C1)OC1=C(C(=O)CC(C)(C)C1)C2c1ccccc1[N+](=O)[O-]
inactive: [1] 100 % of control | [2] 95 % of control | [3] 94 % of control

O=C(c1ccccc1)c1cccs1
inactive: endpoint: mean survival time, dose: 22.0 mg/kg/injection, schedule: Q01DX009 (ip), vehicle: saline with Tween-80 96 % of control | endpoint: mean survival time, dose: 22.0 mg/kg/injection, schedule: Q04DX003 (ip), vehicle: saline with Tween-80 95 % of control | endpoint: mean survival time, dose: 44.0 mg/kg/injection, schedule: Q01DX009 (ip), vehicle: saline with Tween-80 96 % of control | endpoint: mean survival time, dose: 44.0 mg/kg/injection, schedule: Q04DX003 (ip), vehicle: saline with Tween-80 101 % of control | endpoint: mean survival time, dose: 88.0 mg/kg/injection, schedule: Q01DX009 (ip), vehicle: saline with Tween-80 93 % of control | endpoint: mean survival time, dose: 88.0 mg/kg/injection, schedule: Q04DX003 (ip), vehicle: saline with Tween-80 104 % of control

O=C1OC(CBr)CC1(c1ccccc1)c1ccccc1 (configuration not stated)
inactive: [10] 95 % of control | [1] 102 % of control | [12] 100 % of control | [2] 100 % of control | [13] 100 % of control | [3] 102 % of control

COc1nc(NC2OCC(O)C(O)C2O)c(C(C)=O)c(=O)n1C (configuration not stated)
inactive: endpoint: median survival time, dose: 12.5 mg/kg/injection, schedule: Q01DX005 (ip), vehicle: saline with Tween-80 91 % of control | endpoint: median survival time, dose: 25.0 mg/kg/injection, schedule: Q01DX005 (ip), vehicle: saline with Tween-80 98 % of control | endpoint: median survival time, dose: 50.0 mg/kg/injection, schedule: Q01DX005 (ip), vehicle: saline with Tween-80 97 % of control | endpoint: median survival time, dose: 100.0 mg/kg/injection, schedule: Q01DX005 (ip), vehicle: saline with Tween-80 96 % of control | endpoint: median survival time, dose: 200.0 mg/kg/injection, schedule: Q01DX005 (ip), vehicle: saline with Tween-80 96 % of control
